Laboratory results reported in patent publication US7875647B2, “Heteroaryl-pyrazole derivatives as cannabinoid CB1 receptor antagonists” (Green Cross Corporation, priority 2006, dated 2011).
Read-outs that look alike come from different tables or passages of the source.

Assays:
[1] = biological target: T1, Cannabinoid-1 receptor (CB1R) (Rattus norvegicus, UniProt P20272); assay: Cannabinoid-1 receptor (CB1R) binding affinity assay ([3H]CP-55940, rat CB-1 receptor binding protocol); conditions: brain tissue of SD rats, [3H]CP-55940, 30° C. 60 min
T1 construct: The tissue obtained from the brain of SD rats was homogenized; from tissue; host or cells: brain of SD rats (membrane pellet of the homogenate)

DIO mice = assay: Chronic effects in DIO mice (body weight change, oral administration for 14 days); format: in vivo; conditions: DIO mice (male C57BL/6J), 10 mg/kg, FIG. 1
Method: Male C57BL/6J mice weighing over 38 g were housed 1 per cage on a 12-/12-h light/dark cycle, had free access to food (rodent sterilizable diet) and water, and were experimentally native before testing. Mice were allowed at least 7 days to habituate to the experimental room prior to testing, and testing was conducted during the light period. Mice were maintained and experiments were conducted in accordance with the Institutional Animal Care.
By oral administration, animals received at a volume of 10 ml/kg for 14 days. All control animals received 10% DMSO dissolved in deionized water.
The vehicles 10% DMSO treated group were comprised of 5 mice in oral test. There were 6 mice in each of the other experimental groups (n=6 in each group). By oral administration, the losing weight was checked everyday for the drug treated group and the control group.

T1 sequence (P20272 whole entry): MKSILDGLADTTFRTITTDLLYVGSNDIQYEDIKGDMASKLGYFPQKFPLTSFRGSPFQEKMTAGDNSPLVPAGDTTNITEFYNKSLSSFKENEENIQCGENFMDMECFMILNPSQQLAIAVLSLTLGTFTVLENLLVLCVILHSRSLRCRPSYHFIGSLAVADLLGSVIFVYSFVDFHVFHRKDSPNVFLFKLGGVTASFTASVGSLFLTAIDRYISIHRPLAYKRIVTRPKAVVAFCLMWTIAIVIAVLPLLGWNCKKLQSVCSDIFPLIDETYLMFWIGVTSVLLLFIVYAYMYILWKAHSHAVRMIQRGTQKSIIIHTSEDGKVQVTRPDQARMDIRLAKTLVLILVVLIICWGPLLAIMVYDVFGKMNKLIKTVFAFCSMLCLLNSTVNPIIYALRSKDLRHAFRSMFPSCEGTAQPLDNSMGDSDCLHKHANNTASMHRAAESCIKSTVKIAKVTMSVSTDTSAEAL

Row | Compound | IC50 ([1]; read-out: IC50) | also measured
1 | Cc1c(-c2nnc(C3(C(F)(F)F)CC3)o2)nn(-c2ccc(Cl)cc2Cl)c1-c1ccc(Cl)cc1 [Example 132, 2-(5-(4-chlorophenyl)-1-(2,4-dichlorophenyl)-4-methyl-1H-pyrazol-3-yl)-5-(1-(trifluoromethyl)cyclopropyl)-1,3,4-oxadiazole] | 8.53 nM | Body weight change from day 0 (DIO mice): observed on all days
2 | CCc1c(-c2nnc(C3(C(F)(F)F)CC3)o2)nn(-c2ccc(Cl)cc2Cl)c1-c1ccc(Cl)cc1 [Example 155, 2-(5-(4-chlorophenyl)-1-(2,4-dichlorophenyl)-4-ethyl-1H-pyrazol-3-yl)-5-(1-(trifluoromethyl)cyclopropyl)-1,3,4-oxadiazole] |  | Body weight change from day 0 (DIO mice): observed on all days
3 | CC(C)(C)c1nnc(-c2nn(-c3ccc(Cl)cc3Cl)c(-c3ccc(Cl)cc3)c2Cn2cncn2)s1 [Example 502, 2-(4-((1H-1,2,4-triazol-1-yl)methyl)-5-(4-chlorophenyl)-1-(2,4-dichlorophenyl)-1H-pyrazol-3-yl)-5-tert-butyl-1,3,4-thiadiazole] |  | Body weight change from day 0 (DIO mice): observed on all days
4 | Cc1c(-c2n[nH]c(C3CCC3)n2)nn(-c2ccc(Cl)cc2Cl)c1-c1ccc(Cl)cc1 [Example 621, 3-(5-(4-chlorophenyl)-1-(2,4-dichlorophenyl)-4-methyl-1H-pyrazol-3-yl)-5-cyclobutyl-1H-1,2,4-triazole] | 348 nM | 
5 | CCC(C)c1nc(-c2nn(-c3ccc(Cl)cc3Cl)c(-c3ccc(Cl)cc3)c2C)n[nH]1 (centres unmarked) [Example 622, 5-sec-butyl-3-(5-(4-chlorophenyl)-1-(2,4-dichlorophenyl)-4-methyl-1H-pyrazol-3-yl)-1H-1,2,4-triazole] | 840 nM | 
6 | Cc1c(-c2nc(C3CCCC3)n(C)n2)nn(-c2ccc(Cl)cc2Cl)c1-c1ccc(Cl)cc1 [Example 623, 3-(5-(4-chlorophenyl)-1-(2,4-dichlorophenyl)-4-methyl-1H-pyrazol-3-yl)-5-cyclopentyl-1-methyl-1H-1,2,4-triazole] | 368 nM | 
7 | Cc1c(-c2nc(C3CCCCC3)n(C)n2)nn(-c2ccc(Cl)cc2Cl)c1-c1ccc(Cl)cc1 [Example 624, 3-(5-(4-chlorophenyl)-1-(2,4-dichlorophenyl)-4-methyl-1H-pyrazol-3-yl)-5-cyclohexyl-1-methyl-1H-1,2,4-triazole] | 388 nM | 
8 | Cc1c(-c2nc(C3CC3)n(C)n2)nn(-c2ccc(Cl)cc2Cl)c1-c1ccc(Cl)cc1 [Example 628, 3-(5-(4-chlorophenyl)-1-(2,4-dichlorophenyl)-4-methyl-1H-pyrazol-3-yl)-5-cyclopropyl-1-methyl-1H-1,2,4-triazole] | 904 nM | 
9 | CCn1nc(-c2nn(-c3ccc(Cl)cc3Cl)c(-c3ccc(Cl)cc3)c2C)nc1C1CC1 [Example 629, 3-(5-(4-chlorophenyl)-1-(2,4-dichlorophenyl)-4-methyl-1H-pyrazol-3-yl)-5-cyclopropyl-1-ethyl-1H-1,2,4-triazole] | 301 nM | 
10 | Cc1c(-c2nc(C3CC3)n(C(C)C)n2)nn(-c2ccc(Cl)cc2Cl)c1-c1ccc(Cl)cc1 [Example 630, 3-(5-(4-chlorophenyl)-1-(2,4-dichlorophenyl)-4-methyl-1H-pyrazol-3-yl)-5-cyclopropyl-1-isopropyl-1H-1,2,4-triazole] | 573 nM | 
11 | CCC(C)c1nc(-c2nn(-c3ccc(Cl)cc3Cl)c(-c3ccc(Cl)cc3)c2C)nn1CC (centres unmarked) [Example 632, 5-sec-butyl-3-(5-(4-chlorophenyl)-1-(2,4-dichlorophenyl)-4-methyl-1H-pyrazol-3-yl)-1-ethyl-1H-1,2,4-triazole] | 834 nM | 
12 | CCC(C)c1nc(-c2nn(-c3ccc(Cl)cc3Cl)c(-c3ccc(Cl)cc3)c2C)nn1C(C)C (centres unmarked) [Example 633, 5-sec-butyl-3-(5-(4-chlorophenyl)-1-(2,4-dichlorophenyl)-4-methyl-1H-pyrazol-3-yl)-1-isopropyl-1H-1,2,4-triazole] | 60.9 nM | 
13 | CCCCc1cnc(-c2nn(-c3ccc(Cl)cc3Cl)c(-c3ccc(Cl)cc3)c2C)o1 [Example 639, 5-butyl-2-(5-(4-chlorophenyl)-1-(2,4-dichlorophenyl)-4-methyl-1H-pyrazol-3-yl)oxazole] |  | IC50 ([1]; IC50(nM)): 57.2 nM
14 | Cc1c(-c2nc3c(o2)CCCC3)nn(-c2ccc(Cl)cc2Cl)c1-c1ccc(Cl)cc1 [Example 642, 2-(5-(4-chlorophenyl)-1-(2,4-dichlorophenyl)-4-methyl-1H-pyrazol-3-yl)-4,5,6,7-tetrahydrobenzo[d]oxazole] |  | IC50 ([1]; IC50(nM)): 44.2 nM
15 | Cc1c(-c2ncc(C(C)(C)C)o2)nn(-c2ccc(Cl)cc2Cl)c1-c1ccc(Cl)cc1 [Example 644, 5-tert-butyl-2-(5-(4-chlorophenyl)-1-(2,4-dichlorophenyl)-4-methyl-1H-pyrazol-3-yl)oxazole] |  | IC50 ([1]; IC50(nM)): 14.2 nM
16 | Cc1c(C(=O)NN2CCCCC2)nn(-c2ccc(Cl)cc2Cl)c1-c1ccc(Cl)cc1 [rimonabant, reference compound] |  | Body weight change from day 0 (DIO mice): observed on all days

Continued, in another order:

Row | IC50 ([1]; read-out: IC50) | Compound | also measured
17 | 289 nM | Cc1c(-c2nc(C(C)C)n(C)n2)nn(-c2ccc(Cl)cc2Cl)c1-c1ccc(Cl)cc1 [Example 634, 3-(5-(4-chlorophenyl)-1-(2,4-dichlorophenyl)-4-methyl-1H-pyrazol-3-yl)-5-isopropyl-1-methyl-1H-1,2,4-triazole] | 
18 | 712 nM | CCn1nc(-c2nn(-c3ccc(Cl)cc3Cl)c(-c3ccc(Cl)cc3)c2C)nc1C(C)C [Example 635, 3-(5-(4-chlorophenyl)-1-(2,4-dichlorophenyl)-4-methyl-1H-pyrazol-3-yl)-5-isopropyl-1-ethyl-1H-1,2,4-triazole] | 
19 | 851 nM | Cc1c(-c2nc(C(C)C)n(C(C)C)n2)nn(-c2ccc(Cl)cc2Cl)c1-c1ccc(Cl)cc1 [Example 636, 3-(5-(4-chlorophenyl)-1-(2,4-dichlorophenyl)-4-methyl-1H-pyrazol-3-yl)-1,5-diisopropyl-1H-1,2,4-triazole] | 
20 | 93.9 nM | Cc1c(-c2ncc(C3CCCCC3)o2)nn(-c2ccc(Cl)cc2Cl)c1-c1ccc(Cl)cc1 [Example 638, 2-(5-(4-chlorophenyl)-1-(2,4-dichlorophenyl)-4-methyl-1H-pyrazol-3-yl)-5-cyclohexyloxazole] | 
21 | 51.4 nM | CCc1cnc(-c2nn(-c3ccc(Cl)cc3Cl)c(-c3ccc(Cl)cc3)c2C)o1 [Example 640, 2-(5-(4-chlorophenyl)-1-(2,4-dichlorophenyl)-4-methyl-1H-pyrazol-3-yl)-5-ethyloxazole] | 
22 | 40.6 nM | Cc1c(-c2ncc(CC(C)C)o2)nn(-c2ccc(Cl)cc2Cl)c1-c1ccc(Cl)cc1 [Example 641, 2-(5-(4-chlorophenyl)-1-(2,4-dichlorophenyl)-4-methyl-1H-pyrazol-3-yl)-5-isobutyloxazole] | 
23 | 65.5 nM | Cc1c(-c2ncc(C3CCCC3)o2)nn(-c2ccc(Cl)cc2Cl)c1-c1ccc(Cl)cc1 [Example 643, 2-(5-(4-chlorophenyl)-1-(2,4-dichlorophenyl)-4-methyl-1H-pyrazol-3-yl)-5-cyclopentyloxazole] | 
24 | 112 nM | Cc1c(-c2ncc(CC(C)C)s2)nn(-c2ccc(Cl)cc2Cl)c1-c1ccc(Cl)cc1 [Example 646, 2-(5-(4-chlorophenyl)-1-(2,4-dichlorophenyl)-4-methyl-1H-pyrazol-3-yl)-5-isobutylthiazole] | 
25 | 69.4 nM | Cc1c(-c2ncc(C3CCCC3)s2)nn(-c2ccc(Cl)cc2Cl)c1-c1ccc(Cl)cc1 [Example 648, 2-(5-(4-chlorophenyl)-1-(2,4-dichlorophenyl)-4-methyl-1H-pyrazol-3-yl)-5-cyclopentylthiazole] | 
26 | 12.7 nM | Cc1c(-c2ncc(C(C)(C)C)s2)nn(-c2ccc(Cl)cc2Cl)c1-c1ccc(Cl)cc1 [Example 649, 5-tert-butyl-2-(5-(4-chlorophenyl)-1-(2,4-dichlorophenyl)-4-methyl-1H-pyrazol-3-yl)thiazole] | 
27 | 84.1 nM | Cc1c(-c2cc(C(C)(C)C)on2)nn(-c2ccc(Cl)cc2Cl)c1-c1ccc(Cl)cc1 [Example 650, 5-tert-butyl-3-(5-(4-chlorophenyl)-1-(2,4-dichlorophenyl)-4-methyl-1H-pyrazol-3-yl)isoxazole] | 
28 | 95.2 nM | Cc1c(-c2cc(C(C)(C)C)no2)nn(-c2ccc(Cl)cc2Cl)c1-c1ccc(Cl)cc1 [Example 651, 3-tert-butyl-5-(5-(4-chlorophenyl)-1-(2,4-dichlorophenyl)-4-methyl-1H-pyrazol-3-yl)isoxazole] | 
